Here are results for four substances from patent publication US9290737B2, “Method for enucleating nucleated erythrocyte, and enucleation inducer” (Kanazawa Medical University, priority 2009, dated 2016).

Where no end group is shown, it is not given here.

Common to all, as to format: cell-based
The subject of test [1] is nucleated erythrocytes derived from a fetal rat. Kind of test: Enucleation rate of nucleated erythrocytes derived from fetal rat (DAPI staining, fluorescence microscope count). The note with it: vs control without peptide. The procedure:
Experimental rats were bred, and peripheral blood was collected from 12 fetuses aged 13 days post coitum.
The collected peripheral blood was centrifuged at 1,000×g for 5 minutes at room temperature (centrifuge: Hitachi/05PR-22). Then, serum was removed, and blood cells were suspended in 10 ml of culture medium (supplemented with 10% FBS (Sigma/CR1211)/RPMI-1640 Medium (c) (Sigma/R8578)/1% penicillin-streptomycin (Sigma/P4333)) in a clean bench. This suspension was centrifuged again, a supernatant was removed, and the cells were resuspended in the culture medium. This manipulation was repeated twice, and finally the cells were suspended in 10 ml of the culture medium to prepare a sample for culturing peripheral blood.
A blood cell (cell) density was counted using about 10 μl of this sample and a hemocytometer (Burker-Turk Deep 1/10 mm/Erma Tokyo/7787), and the sample was diluted based on the counted value to adjust to 2×10^6 cells/ml.
This sample was diluted to a cell density of 1×10^6 cells/ml with the culture medium, to which ACTH1-24 (SEQ ID NO: 2, manufactured by Sigma) was added at a final concentration of 1 μM or 5 μM to use as a subject culture medium. The sample to which no ACTH1-24 was added was used as a control.
1 ml each of the various subject culture media was dispensed into a 4-well chamber slide glass (Chamber Slide™ System/Lab Tek (registered trademark)/177380), and cultured for a predetermined period of time in an incubator (Sakura CO2 gas Incubator/Sakura/IC-160) under the condition at 37° C. at 5% CO2.
At 0, 3, and 6 hours of the culture, the cells in each subject culture medium were fixed with glutaraldehyde (25% glutaraldehyde solution/Wako Pure Chemical Industries Ltd./073-00536) at a final concentration of 2%. DAPI (1 mg/ml of DAPI solution/DOJINDO/340-07971) for staining nuclei was dripped to the culture medium at a final volume ratio of 1/20,000, which was then shaken for 5 minutes, subsequently excited by a UV source using a fluorescence microscope (OLYMPUS IX70), and 10 fixed points were photographed. Then, the number of cells in the photograph was counted.
The enucleation rate was calculated as follows. Enucleation rate (%)={Enucleated erythrocyte count/Total cell count (Nucleated cell (including nucleated erythrocytes and mesenchymal stem cells) count+Enucleated erythrocyte count)} […]
This sample was diluted to a cell density of 1×10^6 cells/ml with the culture medium, to which CLIP (SEQ ID NO: 11, manufactured by Sigma) or α-MSH (SEQ ID NO: 3, manufactured by Sigma) was added at a final concentration of 1 μM or 5 μM to use as a subject culture medium. The sample to which neither CLIP nor α-MSH was added was used as a control.
250 μl each of the various subject culture media were dispensed in an 8-well chamber slide glass (Chamber Slide™ System/Lab TekR/177402), and cultured for a predetermined period of time in an incubator under the condition at 37° C. at 5% CO2. At 3, 6, and 9 (only for the 5-μM addition samples) hours of the culture, each subject culture medium was sampled, and the culture medium was fixed with glutaraldehyde at a final concentration of 2%. DAPI for staining nuclei was dripped to the culture medium, which was then shaken for 5 minutes, subsequently microscopically observed using a fluorescence microscope, and 10 field images were randomly determined and photographed. The number of cells in each of the photographs was counted, and the mean value thereof was calculated. The enucleation rate was calculated in the same way as in Example 1.

The subject of test [2] is nucleated erythrocytes derived from human cord blood. Kind of test: Enucleation rate of nucleated erythrocytes derived from human cord blood CD34-positive cells (DAPI staining and flow cytometry). The note with it: 5.0 μM added on Day 4 in phase II, measured on Day 9; DAPI staining (FIG. 7) and flow cytometry (FIG. 8). The procedure: CD34-positive hematopoietic stem cells derived from a human (derived from the cord blood, 90% or more CD34-positive, product from Lonza:
http://catalog.takara-bio.co.jp/product/basic_info.asp?unitid=U10 0004262) were cultured in HPGM medium. The cells at a density of 2×10^4 to 2×10^5 cells/ml were cultured with 25 ng/ml of SCF, 50 ng/ml of thrombopoietin, and 50 ng/ml of Flt-3 ligand for first 7 days, and this was used as a phase I.
Next, the cells at a density of 2×10^5 cells/ml were cultured with 3 U/ml of EPO, 25 ng/ml of SCF, 10 ng/ml of IL-3, and 10 ng/ml of IL-6, and this was used as a phase II. The cells were cultured with the addition of ACTH1-24, ACTH1-39, CLIP, or α-MSH at a concentration of 5.0 μM, or ACTH1-24 at a concentration of 0.5 μM on Day 4 in the phase II.
The erythrocytes in the above-mentioned phase II cultured with ACTH1-24, ACTH1-39, CLIP, or α-MSH on Day 9 were fixed with 10% formalin, and stained with 4′,6-diamidino-2-phenylindole (DAPI). Ten photographs were randomly taken under a fluorescence microscope, and the numbers of nucleated and enucleated erythrocytes were visually counted. The measurement was carried out in the blinded manner. The enucleation rate was calculated in the same manner as in Example 1.
(§1) Double staining for glycophorin A (Gly A) and the nucleus (propidium iodide, PI) was given to blood cells in the phase II cultured with ACTH1-24, CLIP, or α-MSH on Day 9 in the same manner as in the foregoing. The cells were analyzed using a flow cytometry (automatic cell analysis sorting apparatus, FACS Calibur/Becton Dickinson). Gly A-positive/PI-negative cells (corresponding to the left upper fraction of four dot plot fractions divided by data from flow cytometry in FIG. 9B) were determined as enucleated cells, and the enucleation rate of these enucleated cells relative to the total cells was calculated.
For orientation: A flow cytometer gives signals particle by particle.

Test [3] deals with cells differentiating into erythrocytes derived from human cord blood. Kind of test: Enucleation efficiency of cells derived from human cord blood (flow cytometry, Gly A/PI). The note with it: 0.5 μM, culture as in Example 4, flow cytometry (FIG. 9A). The method, then:
as §1
ACTH1-24 at a concentration of 0.5 μM was added to the culture carried out in the same manner as in Example 4, and the enucleation rate was measured by flow cytometry.
Gly A is a surface marker of erythroblasts, reticulocytes, and mature erythrocytes. Thus, this method was cited as a method of measuring the percentage of “enucleated erythrocytes”/“cells differentiating into erythrocytes” in a population of blood cells including immature erythrocytes (see Peng J. et al., Nat. Cell Biol., 10: 314-321, 2008).

[4] abbreviates: final concentration 1 μM, after 6 hours of culture.
[5] abbreviates: final concentration 5 μM, 3 hours of culture.

“Acetyl-(N)-Ser-Tyr-Ser-Met-Glu-His-Phe-Arg-Trp-Gly-Lys-Pro-Val-NH2 (Ac-SYSMEHFRWGKPV-NH2) [α-MSH, melanocyte-stimulating hormone peptide containing an acetyl group, manufactured by Sigma]”: the “induction of enucleation (enucleation rate)” value (“induction of enucleation” for short) in test [1] (setting [4]), in test [1] (setting [5]) and in test [2] was “able to be induced” throughout.
Turning to “RPVKVYPNGAEDESAEAFPLEF [CLIP, Corticotropin-Like Intermediate Lobe Peptide, manufactured by Sigma]”, the “induction of enucleation” value in test [1] (setting [4]), in test [1] (setting [5]) and in test [2] was “able to be induced” throughout.
For “SYSMEHFRWGKPVGKKRRPVKVYPNVAENESAEAFPLEF [ACTH1-39, adrenocorticotropic hormone, manufactured by Sigma]”, the “induction of enucleation” value in test [1] (setting [5]) was “higher than that in the control”; in test [2], “able to be induced”.
As for “Ser-Tyr-Ser-Met-Glu-His-Phe-Arg-Trp-Gly-Lys-Pro-Val-Gly-Lys-Lys-Arg-Arg-Pro-Val-Lys-Val-Tyr-Pro (SYSMEHFRWGKPVGKKRRPVKVYP; ACTH1-24)”, the “induction of enucleation” value is recorded as “able to be induced” in test [1] (setting [4]); “able to be induced” in test [1] (final concentration 5 μM, after 6 hours of culture); “able to be induced” in test [2]. Also, in test [3], the “percentage of enucleated erythrocytes in cells differentiating into erythrocytes” value is given as “about 70%”.
